{"source": "patent US20040248257A1", "about": "“SPEX compositions and methods of use” (The Scripps Research Institute, priority 2003, published 2004)", "key": {"hSPEX mRNA expression": {"system": "hSPEX mRNA expression", "conditions": "human cells; 10 μM U0126; cultured DP thymocytes; one experiment", "description": "(§1) The expression of mSPEX and hSPEX mRNAs is compared in cultured DP thymocytes in the presence or absence of stimulation with PMA and ionomycin and in the presence or absence of a MEK inhibitor (10 μM U0126)."}, "mSPEX mRNA expression": {"system": "mSPEX mRNA expression", "conditions": "murine cells; 10 μM U0126; cultured DP thymocytes; one experiment", "description": "as §1"}}, "data": [{"smiles": "N#CC(=C(/N)Sc1ccccc1N)/C(C#N)=C(\\N)Sc1ccccc1N", "note": "[U0126]", "values": [{"measurement": "inhibition of the increase of SPEX mRNA expression observed with PMA and ionomycin stimulation", "setting": "hSPEX mRNA expression", "result": "approximately 70%"}, {"measurement": "inhibition of the increase of SPEX mRNA expression observed with PMA and ionomycin stimulation", "setting": "mSPEX mRNA expression", "result": "approximately 70%"}]}]}
